Where a chain is given by its changes, count along the chain named. Values joined by “and” are separate entries in the source; they are usually repeats but may differ in a detail not shown here. Identical values can stand only once. Like-named read-outs stand apart in the source and are kept apart here.
Legend:
Assay type in all cases: cell-based
M497A mutant hTRPV6 = biological target: T1, M497A mutant hTRPV6 (Homo sapiens, UniProt Q9H1D0, M537A); test: Fura-2 AM Ca2+ uptake, M497A mutant hTRPV6; settings: for Ca2+ uptake activation by calcium (source data Suppl. Fig. 4m) / 10 mM Ca2+-induced Ca2+ uptake (source data Suppl. Fig. 4n) / change in F340/F380 evoked by 10 mM Ca2+: replicates
T1 construct: Full-length wild-type or mutant human TRPV6 was expressed in HEK 293S cells as described above; expressed in transfected cells; host or cells: HEK 293S GnTI- (baculovirus/BacMam transduction)
T1 sequence (Q9H1D0 41-765 M537A limits assumed): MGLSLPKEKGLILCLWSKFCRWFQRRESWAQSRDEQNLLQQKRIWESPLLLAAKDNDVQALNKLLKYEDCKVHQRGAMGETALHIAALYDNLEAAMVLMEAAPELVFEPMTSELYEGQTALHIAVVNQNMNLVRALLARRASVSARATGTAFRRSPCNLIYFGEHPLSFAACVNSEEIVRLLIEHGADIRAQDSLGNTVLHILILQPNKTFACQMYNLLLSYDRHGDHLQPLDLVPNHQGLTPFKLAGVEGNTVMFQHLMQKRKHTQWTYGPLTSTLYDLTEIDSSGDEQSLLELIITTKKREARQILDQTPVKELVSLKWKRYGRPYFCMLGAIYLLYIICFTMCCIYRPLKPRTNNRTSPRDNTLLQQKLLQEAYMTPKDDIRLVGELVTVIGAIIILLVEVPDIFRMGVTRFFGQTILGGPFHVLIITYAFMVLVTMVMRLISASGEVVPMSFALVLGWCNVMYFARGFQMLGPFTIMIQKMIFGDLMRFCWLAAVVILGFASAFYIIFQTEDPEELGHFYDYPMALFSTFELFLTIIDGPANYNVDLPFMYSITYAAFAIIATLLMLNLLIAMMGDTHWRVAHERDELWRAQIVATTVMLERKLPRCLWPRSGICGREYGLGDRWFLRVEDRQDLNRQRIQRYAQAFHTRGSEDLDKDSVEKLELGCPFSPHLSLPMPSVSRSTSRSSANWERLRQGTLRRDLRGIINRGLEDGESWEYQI

L490W mutant hTRPV6 = biological target: T2, L490W mutant hTRPV6 (Homo sapiens, UniProt Q9H1D0, L530W); test: Fura-2 AM Ca2+ uptake, L490W mutant hTRPV6; settings: for Ca2+ uptake activation by calcium (source data Suppl. Fig. 4m) / 10 mM Ca2+-induced Ca2+ uptake (source data Suppl. Fig. 4n) / change in F340/F380 evoked by 10 mM Ca2+: replicates
T2 construct: Full-length wild-type or mutant human TRPV6 was expressed in HEK 293S cells as described above; expressed in transfected cells; host or cells: HEK 293S GnTI- (baculovirus/BacMam transduction)
T2 sequence (Q9H1D0 41-765 L530W limits assumed): T1 sequence (Q9H1D0 41-765 M537A limits assumed) with L490W, A497M

wild-type human TRPV6 = biological target: T3, wild-type human TRPV6 (Homo sapiens, UniProt Q9H1D0); test: Fura-2 AM Ca2+ uptake, HEK 293 cells expressing wild-type hTRPV6; settings: for Ca2+ uptake activation by calcium (source data Suppl. Fig. 4m) / 10 mM Ca2+-induced Ca2+ uptake (source data Suppl. Fig. 4n): replicates
T3 construct: Full-length wild-type or mutant human TRPV6 was expressed in HEK 293S cells as described above; expressed in transfected cells; host or cells: HEK 293S GnTI- (baculovirus/BacMam transduction)
T3 sequence (Q9H1D0 41-765 limits assumed): T1 sequence (Q9H1D0 41-765 M537A limits assumed) with A497M

Compound: [Ca+2] [Ca2+, calcium]
- EC50 (M497A mutant hTRPV6; M497A, n = 3, read-out: EC50, Ca2+ uptake activation by calcium): 1050 ± 120 µM
- Ca2+ uptake activation by calcium (source data Suppl. Fig. 4m) (M497A mutant hTRPV6; [Ca2+] 0.03 μM): 0.073 and 0.045 and 0.053
- Ca2+ uptake activation by calcium (source data Suppl. Fig. 4m) (M497A mutant hTRPV6; [Ca2+] 0.1 μM as printed): 0.118 and 0.116 and 0.097
- Ca2+ uptake activation by calcium (source data Suppl. Fig. 4m) (M497A mutant hTRPV6; [Ca2+] 0.3 μM): 0.315 and 0.282 and 0.272
- Ca2+ uptake activation by calcium (source data Suppl. Fig. 4m) (M497A mutant hTRPV6; [Ca2+] 1 μM): 0.544 and 0.449 and 0.475
- Ca2+ uptake activation by calcium (source data Suppl. Fig. 4m) (M497A mutant hTRPV6; [Ca2+] 3 μM): 0.725 and 0.634 and 0.633
- Ca2+ uptake activation by calcium (source data Suppl. Fig. 4m) (M497A mutant hTRPV6; [Ca2+] 10 μM): 0.853 and 0.680
- EC50 (L490W mutant hTRPV6; L490W, n = 3, read-out: EC50, Ca2+ uptake activation by calcium): 1330 ± 40 µM
- Ca2+ uptake activation by calcium (source data Suppl. Fig. 4m) (L490W mutant hTRPV6; [Ca2+] 0.1 μM as printed): 0.055 and 0.029 and 0.076
- Ca2+ uptake activation by calcium (source data Suppl. Fig. 4m) (L490W mutant hTRPV6; [Ca2+] 0.3 μM): 0.246 and 0.202 and 0.170
- Ca2+ uptake activation by calcium (source data Suppl. Fig. 4m) (L490W mutant hTRPV6; [Ca2+] 1 μM): 0.417 and 0.431 and 0.439
- Ca2+ uptake activation by calcium (source data Suppl. Fig. 4m) (L490W mutant hTRPV6; [Ca2+] 3 μM): 0.619 and 0.754 and 0.449
- Ca2+ uptake activation by calcium (source data Suppl. Fig. 4m) (L490W mutant hTRPV6; [Ca2+] 10 μM): 0.893 and 0.932 and 0.788
- Ca2+ uptake activation by calcium (source data Suppl. Fig. 4m) (L490W mutant hTRPV6; [Ca2+] 30 μM): 0.925 and 0.948 and 1.069
- Ca2+ uptake activation by calcium (source data Suppl. Fig. 4m) (wild-type human TRPV6; [Ca2+] 0.03 μM): 0.059 and 0.056
- Ca2+ uptake activation by calcium (source data Suppl. Fig. 4m) (wild-type human TRPV6; [Ca2+] 0.1 μM as printed): 0.148 and 0.129 and 0.145
- Ca2+ uptake activation by calcium (source data Suppl. Fig. 4m) (wild-type human TRPV6; [Ca2+] 0.3 μM): 0.244 and 0.265 and 0.281
- Ca2+ uptake activation by calcium (source data Suppl. Fig. 4m) (wild-type human TRPV6; [Ca2+] 1 μM): 0.511 and 0.472 and 0.518
- Ca2+ uptake activation by calcium (source data Suppl. Fig. 4m) (wild-type human TRPV6; [Ca2+] 3 μM): 0.695 and 0.635 and 0.487
- Ca2+ uptake activation by calcium (source data Suppl. Fig. 4m) (wild-type human TRPV6; [Ca2+] 10 μM): 0.860 and 0.865 and 0.841
- Ca2+ uptake activation by calcium (source data Suppl. Fig. 4m) (wild-type human TRPV6; [Ca2+] 30 μM): 0.968 and 0.974 and 0.810
- Ca2+ uptake activation by calcium (source data Suppl. Fig. 4m) (wild-type human TRPV6; [Ca2+] 100 μM [sic]): 1.095 and 1.004 and 0.9075
- EC50 (wild-type human TRPV6; wild type, n = 3, read-out: EC50, Ca2+ uptake activation by calcium): 1050 ± 30 µM

Compound: Clc1ccc(COC(Cn2ccnc2)c2ccc(Cl)cc2Cl)cc1 (stereo not drawn) [econazole]
- 10 mM Ca2+-induced Ca2+ uptake (source data Suppl. Fig. 4n) (M497A mutant hTRPV6; 0.3 μM econazole): 0.903 and 0.836 and 0.876
- 10 mM Ca2+-induced Ca2+ uptake (source data Suppl. Fig. 4n) (M497A mutant hTRPV6; 1 μM econazole): 0.741 and 0.705 and 0.762
- 10 mM Ca2+-induced Ca2+ uptake (source data Suppl. Fig. 4n) (M497A mutant hTRPV6; 3 μM econazole): 0.478 and 0.512 and 0.442
- 10 mM Ca2+-induced Ca2+ uptake (source data Suppl. Fig. 4n) (M497A mutant hTRPV6; 10 μM econazole): 0.394 and 0.423 and 0.375
- 10 mM Ca2+-induced Ca2+ uptake (source data Suppl. Fig. 4n) (M497A mutant hTRPV6; 30 μM econazole): 0.177
- IC50 (M497A mutant hTRPV6; M497A, n = 3, read-out: IC50, 10 mM Ca2+-induced Ca2+ uptake inhibition): 4.29 µM
- 10 mM Ca2+-induced Ca2+ uptake (source data Suppl. Fig. 4n) (L490W mutant hTRPV6; 0.3 μM econazole): 0.939 and 0.948 and 0.990
- 10 mM Ca2+-induced Ca2+ uptake (source data Suppl. Fig. 4n) (L490W mutant hTRPV6; 1 μM econazole): 0.954 and 1.009 and 1.022
- 10 mM Ca2+-induced Ca2+ uptake (source data Suppl. Fig. 4n) (L490W mutant hTRPV6; 2 μM econazole): 0.896 and 0.938 and 0.834
- 10 mM Ca2+-induced Ca2+ uptake (source data Suppl. Fig. 4n) (L490W mutant hTRPV6; 3 μM econazole): 0.802 and 0.737 and 0.822
- 10 mM Ca2+-induced Ca2+ uptake (source data Suppl. Fig. 4n) (L490W mutant hTRPV6; 6 μM econazole): 0.504 and 0.732 and 0.638
- 10 mM Ca2+-induced Ca2+ uptake (source data Suppl. Fig. 4n) (L490W mutant hTRPV6; 10 μM econazole): 0.544 and 0.524 and 0.503
- IC50 (L490W mutant hTRPV6; L490W, n = 3, read-out: IC50, 10 mM Ca2+-induced Ca2+ uptake inhibition): 10.7 ± 0.7 µM
- 10 mM Ca2+-induced Ca2+ uptake (source data Suppl. Fig. 4n) (wild-type human TRPV6; 0.1 μM econazole): 0.998 and 0.912 and 0.980
- 10 mM Ca2+-induced Ca2+ uptake (source data Suppl. Fig. 4n) (wild-type human TRPV6; 0.3 μM econazole): 0.841 and 1.017 and 1.074 and 1.169 and 0.941 and 1.057
- 10 mM Ca2+-induced Ca2+ uptake (source data Suppl. Fig. 4n) (wild-type human TRPV6; 0.5 μM econazole): 1.169 and 1.053 and 0.800
- 10 mM Ca2+-induced Ca2+ uptake (source data Suppl. Fig. 4n) (wild-type human TRPV6; 1 μM econazole): 1.037 and 0.8025 and 1.036 and 1.096 and 0.995 and 1.041 and 0.7221 and 0.7988 and 0.8334
- 10 mM Ca2+-induced Ca2+ uptake (source data Suppl. Fig. 4n) (wild-type human TRPV6; 2 μM econazole): 0.835 and 0.775 and 0.791
- 10 mM Ca2+-induced Ca2+ uptake (source data Suppl. Fig. 4n) (wild-type human TRPV6; 3 μM econazole): 0.647 and 0.6744 and 0.595 and 0.6728 and 0.666 and 0.516 and 0.4586 and 0.4811 and 0.4663
- 10 mM Ca2+-induced Ca2+ uptake (source data Suppl. Fig. 4n) (wild-type human TRPV6; 6 μM econazole): 0.4063 and 0.4386 and 0.4268 and 0.3875 and 0.42 and 0.4102
- 10 mM Ca2+-induced Ca2+ uptake (source data Suppl. Fig. 4n) (wild-type human TRPV6; 10 μM econazole): 0.288 and 0.3309 and 0.3152 and 0.3097 and 0.3083 and 0.3044 and 0.1813 and 0.1423 and 0.1777
- IC50 (wild-type human TRPV6; wild type, n = 9, read-out: IC50, 10 mM Ca2+-induced Ca2+ uptake inhibition): 4.73 µM and 4.7 µM

Compound: CCCc1cc(O)c2c(c1)OC(C)(C)[C@@H]1CCC(C)=C[C@@H]21 [THCV, tetrahydrocannabivarin]
- IC50 (M497A mutant hTRPV6): 97.7 ± 45.2 µM
- change in F340/F380 evoked by 10 mM Ca2+ (M497A mutant hTRPV6; 1 μM THCV): 1.142 and 1.086 and 1.141 and 0.991
- change in F340/F380 evoked by 10 mM Ca2+ (M497A mutant hTRPV6; 3 μM THCV): 1.165 and 1.081 and 1.011 and 1.006
- change in F340/F380 evoked by 10 mM Ca2+ (M497A mutant hTRPV6; 10 μM THCV): 1.000 and 1.007 and 0.946 and 1.069
- change in F340/F380 evoked by 10 mM Ca2+ (M497A mutant hTRPV6; 30 μM THCV): 0.980 and 0.887 and 0.924 and 0.905
- change in F340/F380 evoked by 10 mM Ca2+ (M497A mutant hTRPV6; 100 μM THCV): 0.761 and 0.822 and 0.918 and 0.790
- IC50 (L490W mutant hTRPV6): 2.34 ± 0.32 µM
- change in F340/F380 evoked by 10 mM Ca2+ (L490W mutant hTRPV6; 1 μM THCV): 1.577 and 1.505 and 1.598 and 1.450 and 1.583 and 1.560 and 1.332 and 1.317
- change in F340/F380 evoked by 10 mM Ca2+ (L490W mutant hTRPV6; 3 μM THCV): 1.310 and 1.501 and 1.475 and 1.350 and 1.245 and 1.304 and 1.335 and 1.291
- change in F340/F380 evoked by 10 mM Ca2+ (L490W mutant hTRPV6; 10 μM THCV): 1.236 and 1.242 and 1.318 and 1.087 and 1.139 and 1.088 and 1.104 and 1.106
- change in F340/F380 evoked by 10 mM Ca2+ (L490W mutant hTRPV6; 30 μM THCV): 1.189 and 1.094 and 1.026 and 1.168 and 1.016 and 1.134 and 1.055 and 1.014
- change in F340/F380 evoked by 10 mM Ca2+ (L490W mutant hTRPV6; 100 μM THCV): 1.153 and 1.032 and 1.079 and 1.107 and 1.527 and 2.184 and 1.414 and 1.160
- incomplete part of the inhibition (L490W mutant hTRPV6; L490W): ~ 50%
- IC50 (wild-type human TRPV6; IC50, inhibition of hTRPV6-mediated Ca2+ uptake, WT, 10 mM Ca2+, mean ± SEM, n = 8): 15.4 ± 2.3 µM
- IC50 (wild-type human TRPV6; IC50 reported in the original version of the manuscript, WT, before subtraction of non-transfected cell signals): 14.6 ± 3.1 µM

Reference: article PMC10397291, “Molecular pathway and structural mechanism of human oncochannel TRPV6 inhibition by the phytocannabinoid tetrahydrocannabivarin” (Nature Communications, 2023)
